Pest or weed control data for eleven compounds are collected here from patent publication US10206394B2, “Herbicidal compounds” (Syngenta Participations AG, priority 2014, dated 2019).

Where two headings read alike, the source gives them in different places.

Common to all, as to test: Glasshouse assay for herbicidal activity (pre- and post-emergence), percentage phytotoxicity
Assay type in all cases: in vivo

In experiment [1] the test system is Alopecurus myosuroides (ALOMY). To be noted: Alopecurus myosuroides. In a few lines:
(§1)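 Percent injury was estimated by eye on a scale where 0% means no damage and 100% complete damage. Ratings came 15 DAA post-emergence and 20 DAA pre-emergence, with plants held under 16 h light and 65% humidity at 24/18 °C or 20/16 °C day/night.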

Experiment [2] concerns Avena fatua (AVEFA). The settings on record: Avena fatua. In a few lines:
as §1

Experiment [3] deals with Echinochloa crus-galli (ECHCG). To be noted: Echinochloa crus-galli. In a few lines: as §1
Experiment [4] deals with Lolium perenne (LOLPE). To be noted: Lolium perenne. In a few lines: as §1
Setting [5] is: post-emergence, 360 h, Rate 250 g/ha, post-emergence, assessed visually 15 DAA, 100%=total damage, 0%=no damage, read-out: Post-emergence herbicidal activity (percentage phytotoxicity) ALOMY POST.
The mark [6] stands for this setting: pre-emergence, 480 h, Rate 250 g/ha, pre-emergence, assessed visually 20 DAA, 100%=total damage, 0%=no damage, read-out: Pre-emergence herbicidal activity (percentage phytotoxicity) ALOMY PRE.
Setting [7] is: post-emergence, 360 h, Rate 250 g/ha, post-emergence, assessed visually 15 DAA, 100%=total damage, 0%=no damage, read-out: Post-emergence herbicidal activity (percentage phytotoxicity) AVEFA POST.
[8] abbreviates: pre-emergence, 480 h, Rate 250 g/ha, pre-emergence, assessed visually 20 DAA, 100%=total damage, 0%=no damage, read-out: Pre-emergence herbicidal activity (percentage phytotoxicity) AVEFA PRE.
Where [9] appears, read: post-emergence, 360 h, Rate 250 g/ha, post-emergence, assessed visually 15 DAA, 100%=total damage, 0%=no damage, read-out: Post-emergence herbicidal activity (percentage phytotoxicity) ECHCG POST.
Where [10] appears, read: pre-emergence, 480 h, Rate 250 g/ha, pre-emergence, assessed visually 20 DAA, 100%=total damage, 0%=no damage, read-out: Pre-emergence herbicidal activity (percentage phytotoxicity) ECHCG PRE.
The mark [11] stands for this setting: post-emergence, 360 h, Rate 250 g/ha, post-emergence, assessed visually 15 DAA, 100%=total damage, 0%=no damage, read-out: Post-emergence herbicidal activity (percentage phytotoxicity) LOLPE POST.
Setting [12] is: pre-emergence, 480 h, Rate 250 g/ha, pre-emergence, assessed visually 20 DAA, 100%=total damage, 0%=no damage, read-out: Pre-emergence herbicidal activity (percentage phytotoxicity) LOLPE PRE.
Where [13] appears, read: post-emergence, 360 h, POST-emergence, rate 250 g/ha, visual score 15 DAA (100%=total damage, 0%=no damage), read-out: Post-emergence herbicidal activity (percentage phytotoxicity) ALOMY POST.
The mark [14] stands for this setting: pre-emergence, 480 h, PRE-emergence, rate 250 g/ha, visual score 20 DAA (100%=total damage, 0%=no damage), read-out: Pre-emergence herbicidal activity (percentage phytotoxicity) ALOMY PRE.
The mark [15] stands for this setting: post-emergence, 360 h, POST-emergence, rate 250 g/ha, visual score 15 DAA (100%=total damage, 0%=no damage), read-out: Post-emergence herbicidal activity (percentage phytotoxicity) AVEFA POST.
[16] abbreviates: pre-emergence, 480 h, PRE-emergence, rate 250 g/ha, visual score 20 DAA (100%=total damage, 0%=no damage), read-out: Pre-emergence herbicidal activity (percentage phytotoxicity) AVEFA PRE.
The mark [17] stands for this setting: post-emergence, 360 h, POST-emergence, rate 250 g/ha, visual score 15 DAA (100%=total damage, 0%=no damage), read-out: Post-emergence herbicidal activity (percentage phytotoxicity) ECHCG POST.
The mark [18] stands for this setting: pre-emergence, 480 h, PRE-emergence, rate 250 g/ha, visual score 20 DAA (100%=total damage, 0%=no damage), read-out: Pre-emergence herbicidal activity (percentage phytotoxicity) ECHCG PRE.
[19] abbreviates: post-emergence, 360 h, POST-emergence, rate 250 g/ha, visual score 15 DAA (100%=total damage, 0%=no damage), read-out: Post-emergence herbicidal activity (percentage phytotoxicity) LOLPE POST.
[20] abbreviates: pre-emergence, 480 h, PRE-emergence, rate 250 g/ha, visual score 20 DAA (100%=total damage, 0%=no damage), read-out: Pre-emergence herbicidal activity (percentage phytotoxicity) LOLPE PRE.
The mark [21] stands for this setting: post-emergence, 360 h, 250 g/ha, post-emergence, 15 DAA, visual assessment (100%=total damage, 0%=no damage), read-out: Post-emergence herbicidal activity (percentage phytotoxicity) ALOMY POST.
Setting [22] is: pre-emergence, 480 h, 250 g/ha, pre-emergence, 20 DAA, visual assessment (100%=total damage, 0%=no damage), read-out: Pre-emergence herbicidal activity (percentage phytotoxicity) ALOMY PRE.
The mark [23] stands for this setting: post-emergence, 360 h, 250 g/ha, post-emergence, 15 DAA, visual assessment (100%=total damage, 0%=no damage), read-out: Post-emergence herbicidal activity (percentage phytotoxicity) AVEFA POST.
Where [24] appears, read: pre-emergence, 480 h, 250 g/ha, pre-emergence, 20 DAA, visual assessment (100%=total damage, 0%=no damage), read-out: Pre-emergence herbicidal activity (percentage phytotoxicity) AVEFA PRE.
The mark [25] stands for this setting: post-emergence, 360 h, 250 g/ha, post-emergence, 15 DAA, visual assessment (100%=total damage, 0%=no damage), read-out: Post-emergence herbicidal activity (percentage phytotoxicity) ECHCG POST.
Where [26] appears, read: pre-emergence, 480 h, 250 g/ha, pre-emergence, 20 DAA, visual assessment (100%=total damage, 0%=no damage), read-out: Pre-emergence herbicidal activity (percentage phytotoxicity) ECHCG PRE.
[27] abbreviates: post-emergence, 360 h, 250 g/ha, post-emergence, 15 DAA, visual assessment (100%=total damage, 0%=no damage), read-out: Post-emergence herbicidal activity (percentage phytotoxicity) LOLPE POST.
[28] abbreviates: pre-emergence, 480 h, 250 g/ha, pre-emergence, 20 DAA, visual assessment (100%=total damage, 0%=no damage), read-out: Pre-emergence herbicidal activity (percentage phytotoxicity) LOLPE PRE.

For the compound `COCC#CC(C)(C)NC(=O)CC1CC(=O)C(c2c(C)cc(-c3ncc(Cl)cc3F)cc2C)C1=O` (stereo not shown) [Compound A112], the pest or weed control at 250 g/ha in experiment [1] (setting [5]) came to 90%; in experiment [1] (setting [6]) it was 80%; in experiment [2] (setting [7]), 100%; in experiment [2] (setting [8]), 90%; in experiment [3] (setting [9]) it was 100%; in experiment [3] (setting [10]) it was 100%. The pest or weed control at 250 g/ha in experiment [4] (setting [11]) and in experiment [4] (setting [12]) was 100% in each case.

Take `COCCNC(=O)CC1CC(=O)C(c2c(C)cc(-c3ncc(F)cn3)cc2C)C1=O` (stereo not shown) [Compound A87]: the pest or weed control at 250 g/ha was 100% in experiment [1] (setting [5]); 80% in experiment [1] (setting [6]); 100% in experiment [2] (setting [7]); 90% in experiment [2] (setting [8]); 100% in experiment [3] (setting [9]); 90% in experiment [3] (setting [10]). For the same compound, the pest or weed control at 250 g/ha in experiment [4] (setting [11]) and in experiment [4] (setting [12]) was 80% in each case.

`Cc1cc(OCC(F)(F)F)cc(C)c1C1C(=O)CC(CC(=O)N(C)C(C)(C)C)C1=O` (stereo not shown) [Compound B212]: the pest or weed control at 250 g/ha is 90% in experiment [1] (setting [13]); 60% in experiment [1] (setting [14]); 60% in experiment [2] (setting [15]); 60% in experiment [2] (setting [16]); 90% in experiment [3] (setting [17]); 100% in experiment [3] (setting [18]). The pest or weed control at 250 g/ha in experiment [4] (setting [19]) stood at 70%; in experiment [4] (setting [20]), 90%.

Consider `C#CCNC(=O)CC1CC(=O)C(c2c(C)cc(OCC(F)(F)F)cc2CC)C1=O` (stereo not shown) [Compound B166], for which the pest or weed control at 250 g/ha in experiment [1] (setting [13]), in experiment [1] (setting [14]), in experiment [2] (setting [15]), in experiment [2] (setting [16]), in experiment [3] (setting [17]) and in experiment [3] (setting [18]) was 100% in each case. For the same compound, the pest or weed control at 250 g/ha in experiment [4] (setting [19]) and in experiment [4] (setting [20]) was 100% each time.

Consider `CC#Cc1cc(C)c(C2C(=O)CC(CC(=O)NC(C)(C)CC)C2=O)c(C)c1` (stereo not shown) [Compound A60], for which the pest or weed control at 250 g/ha in experiment [1] (setting [5]), in experiment [1] (setting [6]), in experiment [2] (setting [7]), in experiment [2] (setting [8]), in experiment [3] (setting [9]) and in experiment [3] (setting [10]) was 100% throughout. Also, the pest or weed control at 250 g/ha in experiment [4] (setting [11]) came out at 90%; in experiment [4] (setting [12]), 100%.

On to `Cc1cc(OCC(F)(F)F)cc(C)c1C1C(=O)CC(CC(=O)NCC2CC2)C1=O` (stereo not shown) [Compound B210], for which the pest or weed control at 250 g/ha amounted to 100% in experiment [1] (setting [13]); 100% in experiment [1] (setting [14]); 90% in experiment [2] (setting [15]); 80% in experiment [2] (setting [16]); 100% in experiment [3] (setting [17]); 100% in experiment [3] (setting [18]). Also, the pest or weed control at 250 g/ha in experiment [4] (setting [19]) came to 90%; in experiment [4] (setting [20]), 100%.

As to `CCc1cc(C)cc(C)c1C1C(=O)CC(CC(=O)NCC2CC2)C1=O` (stereo not shown) [Compound B257], the pest or weed control at 250 g/ha in experiment [1] (setting [13]) came to 100%; in experiment [1] (setting [14]) it was 100%; in experiment [2] (setting [15]) it was 100%; in experiment [2] (setting [16]) it was 90%; in experiment [3] (setting [17]) it was 100%; in experiment [3] (setting [18]) it was 100%. The pest or weed control at 250 g/ha in experiment [4] (setting [19]) and in experiment [4] (setting [20]) was 100% throughout.

As to `Cc1cc(C)c(C2C(=O)CC(CC(=O)NCc3ccccc3Cl)C2=O)c(C)c1` (stereo not shown) [Compound B17], the pest or weed control at 250 g/ha in experiment [1] (setting [21]) is 40%; in experiment [1] (setting [22]) it was 20%; in experiment [2] (setting [23]) it was 50%; in experiment [2] (setting [24]), 0%; in experiment [3] (setting [25]) it was 70%; in experiment [3] (setting [26]), 90%. Also, the pest or weed control at 250 g/ha in experiment [4] (setting [27]) was 70%; in experiment [4] (setting [28]), 90%.

On to `COCC(C)NC(=O)CC1CC(=O)C(c2c(C)cc(Br)cc2C)C1=O` (stereo not shown) [Compound B134], for which the pest or weed control at 250 g/ha in experiment [1] (setting [21]) amounted to 90%; in experiment [1] (setting [22]) it was 90%; in experiment [2] (setting [23]) it was 90%; in experiment [2] (setting [24]), 70%; in experiment [3] (setting [25]), 80%; in experiment [3] (setting [26]) it was 70%. Besides, the pest or weed control at 250 g/ha in experiment [4] (setting [27]) and in experiment [4] (setting [28]) was 80% in each case.

Consider `CC#Cc1cc(C)c(C2C(=O)CC(CC(=O)N(C)CCC)C2=O)c(C)c1` (stereo not shown) [Compound A61], for which the pest or weed control at 250 g/ha in experiment [1] (setting [5]) is 100%; in experiment [1] (setting [6]) it was 100%; in experiment [2] (setting [7]), 100%; in experiment [2] (setting [8]), 90%; in experiment [3] (setting [9]) it was 100%; in experiment [3] (setting [10]) it was 100%. The figures for the pest or weed control at 250 g/ha in experiment [4] (setting [11]) and in experiment [4] (setting [12]) were 90% and 100%, respectively.

For `C#CCN(CC#C)C(=O)CC1CC(=O)C(c2c(C)cc(-c3ncc(F)cn3)cc2C)C1=O` (stereo not shown) [Compound B110], the pest or weed control at 250 g/ha came out at 100% in experiment [1] (setting [21]); 90% in experiment [1] (setting [22]); 100% in experiment [2] (setting [23]); 80% in experiment [2] (setting [24]); 100% in experiment [3] (setting [25]); 100% in experiment [3] (setting [26]). For the same compound, the results for the pest or weed control at 250 g/ha in experiment [4] (setting [27]) and in experiment [4] (setting [28]) were 90% and 80%, respectively.
